pKd: −log10 of the molar value.
Biological target: T1, AceR (Acinetobacter baumannii, UniProt P0DUU5)
T1 sequence (P0DUU5 84-297): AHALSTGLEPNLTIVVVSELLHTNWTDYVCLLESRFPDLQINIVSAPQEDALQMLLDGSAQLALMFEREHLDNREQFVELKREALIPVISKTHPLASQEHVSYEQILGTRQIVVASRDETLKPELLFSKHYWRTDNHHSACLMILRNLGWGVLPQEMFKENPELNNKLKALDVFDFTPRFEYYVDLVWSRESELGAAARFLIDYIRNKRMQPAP
Experiment: SPR
Assay type: binding

Question: With `[H]/N=C(\N/C(=N/[H])NCCCCCCNC(=N)NC(=N)Nc1ccc(Cl)cc1)Nc1ccc(Cl)cc1` [chlorhexidine] as the compound, how does the pKd read?
Answer: 4.21
